PubChem BioAssay (NCI)
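Test compounds were applied to cells in 96-well plates for 48 hours at 5 doses. Here, GI50 denotes the concentration required for 50% inhibition of growth. TGI marks complete inhibition of growth.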

Columns and labels:
Test in all cases: inhibition of tumour cell growth, NCI panel, 48 h
786-0 renal = test system: 786-0 renal
SW-620 colon = test system: SW-620 colon
SF-295 CNS = test system: SF-295 CNS
SF-539 CNS = test system: SF-539 CNS
SNB-19 CNS = test system: SNB-19 CNS
RXF 393 renal = test system: RXF 393 renal
NCI-H522 lung = test system: NCI-H522 lung
HOP-92 NSCLC = test system: HOP-92 NSCLC
HS 578T breast = test system: HS 578T breast
K-562 leukemia = test system: K-562 leukemia
DU-145 prostate = test system: DU-145 prostate
SN12C renal = test system: SN12C renal
TK-10 renal = test system: TK-10 renal
LOX IMVI melanoma = test system: LOX IMVI melanoma
SK-OV-3 ovarian = test system: SK-OV-3 ovarian
OVCAR-8 ovarian = test system: OVCAR-8 ovarian
NCI-H226 lung = test system: NCI-H226 lung
MDA-MB-435 = test system: MDA-MB-435
NCI-H460 lung = test system: NCI-H460 lung
SK-MEL-2 melanoma = test system: SK-MEL-2 melanoma
SR leukemia = test system: SR leukemia
UO-31 renal = test system: UO-31 renal
A498 renal = test system: A498 renal
SK-MEL-5 melanoma = test system: SK-MEL-5 melanoma
HCC-2998 colon = test system: HCC-2998 colon
CCRF-CEM leukemia = test system: CCRF-CEM leukemia
OVCAR-4 ovarian = test system: OVCAR-4 ovarian
HT29 colon = test system: HT29 colon

`Nc1c(C(=O)c2ccccc2)sc2nc(-c3cccs3)ccc12` gave a GI50 (786-0 renal) of 725 nM, a TGI (786-0 renal) of 7670 nM and a GI50 (SW-620 colon) of 73.4 nM. The TGI (SW-620 colon) was 11100 nM, the GI50 (SF-295 CNS) was 171 nM and the TGI (SF-295 CNS) was 1710 nM. The GI50 (SF-539 CNS) was 250 nM, the TGI (SF-539 CNS) was 1240 nM and the GI50 (SNB-19 CNS) was 432 nM. It also gave a TGI (SNB-19 CNS) of 10300 nM, a GI50 (RXF 393 renal) of 317 nM and a TGI (RXF 393 renal) of 1630 nM. For the same compound, the GI50 (NCI-H522 lung) was 17.8 nM, the TGI (NCI-H522 lung) was 56.7 nM and the GI50 (HOP-92 NSCLC) was 486 nM. For the same compound, the TGI (HOP-92 NSCLC) was 7310 nM, the GI50 (HS 578T breast) was 474 nM and the TGI (HS 578T breast) was 12700 nM. It also gave a GI50 (K-562 leukemia) of 46.7 nM, a TGI (K-562 leukemia) of 20500 nM and a GI50 (DU-145 prostate) of 299 nM. It also gave a TGI (DU-145 prostate) of 10000 nM, a GI50 (SN12C renal) of 692 nM and a TGI (SN12C renal) of 27400 nM. It also gave a GI50 (TK-10 renal) of 414 nM, a TGI (TK-10 renal) of 5790 nM and a GI50 (LOX IMVI melanoma) of 378 nM. For the same compound, the TGI (LOX IMVI melanoma) was 15300 nM, the GI50 (SK-OV-3 ovarian) was 389 nM and the TGI (SK-OV-3 ovarian) was 18400 nM. It also gave a GI50 (OVCAR-8 ovarian) of 453 nM, a TGI (OVCAR-8 ovarian) of over 100000 nM and a GI50 (NCI-H226 lung) of 2110 nM. The TGI (NCI-H226 lung) was 12500 nM, the GI50 (MDA-MB-435) was 27 nM and the TGI (MDA-MB-435) was 1030 nM. It also gave a GI50 (NCI-H460 lung) of 283 nM, a TGI (NCI-H460 lung) of 2560 nM and a GI50 (SK-MEL-2 melanoma) of 252 nM. For the same compound, the TGI (SK-MEL-2 melanoma) was 17800 nM, the GI50 (SR leukemia) was 66.8 nM and the TGI (SR leukemia) was 4160 nM. It also gave a GI50 (UO-31 renal) of 1130 nM, a TGI (UO-31 renal) of 15200 nM and a GI50 (A498 renal) of 185 nM. For the same compound, the TGI (A498 renal) was 3910 nM, the GI50 (SK-MEL-5 melanoma) was 292 nM and the TGI (SK-MEL-5 melanoma) was 3130 nM. The GI50 (HCC-2998 colon) was 468 nM, the TGI (HCC-2998 colon) was 4250 nM and the GI50 (CCRF-CEM leukemia) was 524 nM. For the same compound, the TGI (CCRF-CEM leukemia) was over 100000 nM, the GI50 (OVCAR-4 ovarian) was 902 nM and the TGI (OVCAR-4 ovarian) was 6720 nM. It also gave a GI50 (HT29 colon) of 365 nM and a TGI (HT29 colon) of 3300 nM.
